The molecules below were run against T1, human MCH-1 receptor (Homo sapiens, UniProt Q99705) (assay: Ca2+ mobilization experiment for the MCH-1 receptor (FLIPR), inhibition of MCH-induced Ca2+ mobilization). Conditions: CHO cells stably expressing human MCH-1 receptor, inhibition of MCH-induced Ca2+ response, read-out: MCH-1 pIC50 (converted).
T1 construct: expressed in transfected cells
Assay type: cell-based
Method: The interaction of the compounds of Formula (I) with MCH-1 receptors was assessed in in vitro transient calcium (Ca^2+) mobilization assays in the fluorimetric imaging plate reader (FLIPR) format (Sullivan et al. 1999, Methods Mol Biol 114:125-133). In general, the natural agonist (MCH) is incubated with cells expressing the MCH-1 receptor, which elicits a concentration-dependent transient mobilization of Ca^2+ from internal stores. The interaction of the test compounds with the receptor is assessed in competition experiments. Various concentrations of the test compound are added to the incubation mixture containing the receptor-expressing cells and a submaximal concentration of MCH. The test compound in proportion to its antagonist potency and its concentration inhibits MCH-induced Ca^2+ mobilization.
Chinese Hamster ovary cells (CHO) stably expressing the human MCH-1 receptor are grown in a 1:1 mixture of Dulbecco's Modified Eagles Medium (DMEM) and HAM's F12 medium including Glutamax™ (Invitrogen), supplemented with 10% heat-inactivated fetal bovine serum and 400 μg/ml geneticin.
Twenty-four hours before the experiment, MCH-1 receptor-expressing CHO cells are seeded in 20 μl (5,000 cells per well) into 384-well black wall, clear bottom microtiter plates (Costar). On the day of the experiment, 20 μl per well calcium assay kit containing 10 mM probenicide (Molecular Devices) is added. Cells are loaded for 90 min at 37° C. and 5% CO2 in a cell culture incubator. After loading, 20 μl of serial dilutions of the test compound are added and cells are further incubated for 20 min at room temperature in the dark. After 20 min, 20 μl of a submaximal MCH concentration is added and changes in intracellular calcium are recorded directly in a FLIPR III apparatus (Molecular devices).
Data from assays in the presence of compound were calculated as a percentage of total Ca^2+-responses measured in the absence of test compound. Inhibition curves, plotting percent of total Ca^2+-responses versus the log value of the concentration of the test compound, were automatically generated, and sigmoidal inhibition curves were fitted using non-linear regression. The pIC50 values of test compounds were derived from individual curves.

T1 sequence (Q99705 whole entry): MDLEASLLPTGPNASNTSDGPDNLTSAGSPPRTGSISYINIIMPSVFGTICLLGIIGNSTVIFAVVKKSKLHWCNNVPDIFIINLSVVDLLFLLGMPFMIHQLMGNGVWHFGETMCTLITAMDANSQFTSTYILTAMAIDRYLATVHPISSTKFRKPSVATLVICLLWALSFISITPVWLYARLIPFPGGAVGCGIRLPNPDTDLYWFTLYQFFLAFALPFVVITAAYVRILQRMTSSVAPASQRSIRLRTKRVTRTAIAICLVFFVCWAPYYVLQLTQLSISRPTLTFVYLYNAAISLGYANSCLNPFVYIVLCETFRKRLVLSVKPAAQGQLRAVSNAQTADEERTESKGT

Compound | IC50 [nM]
COc1cc(-n2ccnc(NCCOc3cccc(Cl)c3)c2=O)ccc1OCCN1CCCC1 [2-30] | 50.1
COc1cccc(OCCCNc2nccn(-c3ccc(OCCN4CCCC4)c(OC)c3)c2=O)c1 [2-37] | 398
O=C1CCC(=O)N1CCOc1ccc(-n2ccnc(NCCOc3ccccc3)c2=O)cc1 [1-37] | 100
CNCCOc1ccc(-n2ccnc(NCCOc3ccccc3)c2=O)cc1 [1-23] | 1260
O=c1c(NCCOc2ccccc2)nccn1-c1ccc(OCCN2CCCC2)c(CO)c1 [1-51] | 126
COCc1cc(-n2ccnc(NCCOc3ccccc3)c2=O)ccc1OCCN1CCCC1 [1-52] | 158
CN(C)CCN1CCc2cc(-n3ccnc(NCCOc4ccccc4)c3=O)ccc21 [3-84] | 79.4
CC(=O)c1cc(-n2ccnc(NCCOc3ccccc3)c2=O)ccc1OCCN1CCCC1 [1-53] | 100
CNC1CCN(c2ccc(-n3ccnc(NCCOc4ccccc4)c3=O)cc2)C1 (stereo not shown) [1-01] | 501
O=C1CCN(CCOc2ccc(-n3ccnc(NCCOc4ccccc4)c3=O)cc2)CC1 [1-40] | 251
COc1cc(-n2ccnc(NCCOc3ccccc3)c2=O)ccc1OCCN(C)C(C)=O [1-61] | 100
COc1cc(-n2ccnc(NCCOc3ccc(Cl)cc3Cl)c2=O)ccc1OCCN1CCCC1 [2-40] | 200
COc1cc(-n2ccnc(N3CCC(c4ccc(Cl)c(Cl)c4)C3)c2=O)ccc1OCCN1CCCC1 (stereo not shown) [4-08] | 794
COc1cc(-n2ccnc(NCCc3ccc(Br)cc3)c2=O)ccc1OCCN1CCCC1 [2-21] | 39.8
O=c1c(NCCOc2ccccc2)nccn1-c1ccc(OCCN2CCCC2)nc1 [3-91] | 3980
CN(C)CCN(C)CCOc1ccc(-n2ccnc(NCCOc3ccccc3)c2=O)cc1 [1-27] | > 10000
O=c1c(NCCCOc2ccccc2)nccn1-c1ccc(OCCN2CCCC2)cc1 [2-12] | 100
COc1cc(-n2ccnc(NCCc3ccccc3)c2=O)ccc1NC1CC2COCC(C1)N2 (stereo not shown) [3-27] | 79.4

Compound | IC50 [nM]
COCCN(C)CCOc1ccc(-n2ccnc(NCCOc3ccccc3)c2=O)cc1 [1-29] | 1580
COc1cc(-n2ccnc(NCCCOc3ccc(Cl)cc3Cl)c2=O)ccc1OCCN1CCCC1 [2-41] | 631
O=c1c(NCCOc2ccccc2)nccn1-c1ccc(OCCCCN2CCCC2)cc1 [1-47] | 1000
O=c1c(NCCOc2ccccc2)nccn1-c1ccc(N2CCNCC2)cc1 [1-06] | 2000
NC(=O)C1CCN(CCOc2ccc(-n3ccnc(NCCOc4ccccc4)c3=O)cc2)CC1 [1-41] | 631
COc1cc(-n2ccnc(NCCOc3ccccc3)c2=O)ccc1OCCN1CCC(F)(F)CC1 [1-73] | 50.1
COc1cc(-n2ccnc(NCCOc3ccccc3C)c2=O)ccc1OCCN1CCCC1 [2-33] | 200
CN(CCOc1ccc(-n2ccnc(NCCOc3ccccc3)c2=O)cc1)C1CCCCC1 [1-25] | 631
COc1cc(-n2ccnc(NCCOc3ccccc3)c2=O)ccc1OCCNCCO [1-60] | 200
COc1cc(-n2ccnc(NCCc3ccc(C(F)(F)F)cc3F)c2=O)ccc1OCCN1CCCC1 [2-43] | 794
O=c1c(NCCOc2ccccc2)nccn1-c1ccc(NCCN2CCCC2)cc1 [1-20] | 200
COc1cc(-n2ccnc(NCCOc3ccccc3)c2=O)ccc1OCCN1CCOCC1 [1-74] | 79.4
CCCC(=O)N(C)CCOc1ccc(-n2ccnc(NCCOc3ccccc3)c2=O)cc1OC [1-62] | 50.1
O=c1c(NCCOc2ccccc2Cl)nccn1-c1ccc(OCCN2CCCC2)cc1 [2-27] | 251
COCC(=O)N(C)CCOc1ccc(-n2ccnc(NCCOc3ccccc3)c2=O)cc1OC [1-64] | 100
CC(=O)N(C)C1CCN(c2ccc(-n3ccnc(NCCOc4ccccc4)c3=O)cc2)C1 (stereo not shown) [1-02] | 251
COc1cccc(CCNc2nccn(-c3ccc(OCCN4CCCC4)c(OC)c3)c2=O)c1 [2-35] | 31.6

Second part, the molecule after the results:

IC50 [nM] | Compound
39.8 | COc1cc(-n2ccnc(NCCc3ccccc3)c2=O)ccc1N1CCC(N)C1 (stereo not shown) [3-08]
79.4 | COc1cc(-n2ccnc(NCCOc3ccccc3)c2=O)ccc1OCCCN1CCCC(CO)C1 (stereo not shown) [1-78]
100 | COc1cc(-n2ccnc(NCCOc3ccccc3)c2=O)ccc1OCCN(C)C(=O)C1CCCC1 [1-65]
63.1 | COc1cc(-n2ccnc(NCCc3ccccc3)c2=O)ccc1OCCN1CC[C@@H](F)C1 [3-47]
25.1 | COc1cc(-n2ccnc(SCCc3ccccc3)c2=O)ccc1C=CCN1CCCC1 [6-12]
39.8 | COc1cc(-n2ccnc(NCCc3ccccc3)c2=O)ccc1OCCCN(C)C1CC1 [3-68]
316 | COc1cc(-n2ccnc(N3CCC(c4ccc(C)cc4)C3)c2=O)ccc1OCCN1CCCC1 (stereo not shown) [4-04]
63.1 | CC(=O)N(C)C1CCN(c2ccc(-n3ccnc(NCCc4ccccc4)c3=O)cc2)C1 (stereo not shown) [3-03]
31.6 | COc1cc(-n2ccnc(NCCc3ccccc3)c2=O)ccc1OCCN1[C@H](C)CCC[C@@H]1C [3-57]
31.6 | COc1cc(-n2ccnc(SCCc3ccccc3)c2=O)ccc1N1CCC(N2C(C)CCCC2C)C1 (stereo not shown) [6-09]
158 | COc1cc(-n2ccnc(NCCc3ccccc3)c2=O)ccc1N1CCC(N(C2CC2)C2CC2)C1 (stereo not shown) [3-18]
79.4 | COc1cc(-n2ccnc(NCCc3ccccc3)c2=O)ccc1N1CCC(N(C)C2CC2)C1 (stereo not shown) [3-17]
50.1 | COc1cc(-n2ccnc(NCCc3ccccc3)c2=O)ccc1N1CCC(N(C)C)C1 (stereo not shown) [3-13]
200 | O=c1c(NCCc2ccccc2)nccn1-c1ccc2nc(N3CCCCC3)ccc2c1 [3-87]
501 | CC(C)(C)OC(=O)N1CCN(c2ccc(-n3ccnc(NCCc4ccccc4)c3=O)cc2)CC1 [3-07]
50.1 | CNC1CCN(c2ccc(-n3ccnc(NCCc4ccccc4)c3=O)cc2)C1 (stereo not shown) [3-02]
63.1 | COc1cc(-n2ccnc(NCCc3ccccc3)c2=O)ccc1N1CCC(NC(C)=O)C1 (stereo not shown) [3-09]
15.8 | COc1cc(-n2ccnc(NCCCOc3ccccc3)c2=O)ccc1OCCN1CCCC1 [2-13]
316 | COc1cc(-n2ccnc(NCCOc3ccccc3)c2=O)ccc1N1CCC(NC(C)=O)CC1 [1-14]
63.1 | COc1cc(-n2ccnc(NCCOc3ccccc3)c2=O)ccc1OC1CCNCC1 [1-58]
100 | COc1cc(-n2ccnc(NCCOc3ccccc3)c2=O)ccc1OCCN1CCC(C#N)CC1 [1-71]
63.1 | COc1cc(-n2ccnc(NCCc3ccccc3)c2=O)ccc1OCCNC(C)=O [3-38]

IC50 [nM] | Compound
200 | COCC(=O)NCCOc1ccc(-n2ccnc(NCCc3ccccc3)c2=O)cc1OC [3-43]
31.6 | COc1cc(-n2ccnc(NCCCOc3ccccc3)c2=O)ccc1OC1CCNCC1 [7-01]
126 | COc1cc(-n2ccnc(NCCc3ccccc3)c2=O)ccc1N1CCCN(C)CC1 [3-19]
50.1 | COc1cc(-n2ccnc(NCCc3ccccc3)c2=O)ccc1OCCN(C)CCO [3-37]
100 | COc1cc(-n2ccnc(NCCOc3ccccc3)c2=O)ccc1N1CCC(N(C)C)C1 (stereo not shown) [1-10]
39.8 | COc1cc(-n2ccnc(NCCc3ccccc3)c2=O)ccc1OCCCN1CCC(C#N)CC1 [3-73]
158 | COc1cc(-n2ccnc(CCCOc3ccccc3)c2=O)ccc1OCCN1CCCC1 [2-08]
126 | COc1cc(-n2ccnc(NCCc3ccccc3)c2=O)ccc1OCC1CCCN1C(=O)OC(C)(C)C (stereo not shown) [3-36]
100 | O=c1c(NCCc2ccccc2)nccn1-c1ccc(N2CCNCC2)c(Cl)c1 [3-77]
50.1 | COc1cc(-n2ccnc(NCCc3ccccc3)c2=O)ccc1OC1CCN(C2CC2)C1 (stereo not shown) [3-33]
631 | COc1cc(-n2ccnc(N3CCC(Oc4ccccc4)CC3)c2=O)ccc1OCCN1CCCC1 [4-02]
79.4 | COc1cc(-n2ccnc(NCCc3ccccc3)c2=O)ccc1OCCN1CCCC1C(N)=O (stereo not shown) [3-48]
31.6 | COc1cc(-n2ccnc(NCCc3ccccc3)c2=O)ccc1OCCCN1CCC(F)(F)CC1 [3-74]
79.4 | COc1cc(-n2ccnc(NCCc3ccccc3)c2=O)ccc1OCCNC(=O)CN(C)C [3-40]
100 | COc1cc(-n2ccnc(NCCOc3ccccc3)c2=O)ccc1OCCCN1CCCC1 [1-75]
20 | COc1cc(-n2ccnc(NCCc3ccccc3)c2=O)ccc1OCCN1CCC(F)CC1 [3-50]
631 | COc1cccc(C2CCN(c3nccn(-c4ccc(OCCN5CCCC5)c(OC)c4)c3=O)C2)c1 (stereo not shown) [4-07]
50.1 | COc1cc(-n2ccnc(NCCc3ccccc3)c2=O)ccc1N1CCC(NC2CC2)C1 (stereo not shown) [3-16]
31.6 | COc1cc(-n2ccnc(NCCc3ccccc3)c2=O)ccc1OCCN1CCCC(CO)C1 (stereo not shown) [3-49]
25.1 | COc1cc(-n2ccnc(NCCc3ccccc3)c2=O)ccc1OCCN1CCC(C(=O)N2CCCC2)CC1 [3-55]
25.1 | COc1cc(-n2ccnc(SCCc3ccccc3)c2=O)ccc1OC1CCN(C(C)C)C1 (stereo not shown) [6-16]
79.4 | COc1cc(-n2ccnc(NCCOc3ccccc3)c2=O)ccc1N1CCC(N(C)C(=O)C2CC2)C1 (stereo not shown) [1-12]

From US8329704B2, “Substituted pyrazinone derivatives for use in MCH-1 mediated diseases” (Janssen Pharmaceutica, N.V., priority 2005, dated 2012)
